{"source": "patent US5279956A", "about": "“Activated protein C polypeptides and anti-peptide antibodies, diagnostic methods and systems for inhibiting activated protein C” (The Scripps Research Institute, priority 1991, dated 1994)", "molecular_target": "T1, APC (Homo sapiens, UniProt P04070)", "T1 construct": "begins at amino acid residue position 158 and ends at 419; The light chain is 155 amino acid residues in length; tissue Factor IX concentrate from Immuno AG, Vienna; thrombin from Enzyme Research Laboratories", "T1 sequence (P04070 212-461)": "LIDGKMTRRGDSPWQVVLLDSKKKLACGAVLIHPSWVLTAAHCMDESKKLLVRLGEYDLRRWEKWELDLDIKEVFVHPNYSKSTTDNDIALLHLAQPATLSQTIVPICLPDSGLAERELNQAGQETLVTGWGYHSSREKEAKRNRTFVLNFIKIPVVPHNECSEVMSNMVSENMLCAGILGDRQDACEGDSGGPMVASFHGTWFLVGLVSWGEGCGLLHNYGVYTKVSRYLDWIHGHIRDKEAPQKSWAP", "T1 sequence (P04070 43-197)": "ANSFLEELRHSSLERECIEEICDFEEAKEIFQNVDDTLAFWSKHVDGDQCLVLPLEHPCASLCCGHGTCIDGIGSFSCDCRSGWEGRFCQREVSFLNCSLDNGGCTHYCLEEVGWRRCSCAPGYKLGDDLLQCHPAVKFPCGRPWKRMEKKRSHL", "assay": "Activated partial thromboplastin time (APTT) coagulation assay of APC anticoagulant activity", "format": "biochemical", "conditions": "APTT assay in the presence of APC", "description": "The effect of the synthetic peptides on APC anticoagulant activity were determined using the APTT assay in the presence of either normal citrate anticoagulated plasma (NHP) or protein S depleted plasma (PSDP). The assays were performed essentially as described. See Marlar et al., Blood, 59:1067-1072 […]; Suzuki et al., J. Biol. Chem., 258:163-168 (1983); Gruber et al., Blood, 73:639-642 (1989); Ohlin et al., Biochem., 29:644-651 (1990). NHP was purchased from George King Bio-Medical, Inc. (Overland Park, Kans.). PSDP was prepared from a normal human citrate-anticoagulated plasma pool from ten healthy donors. Protein S was immunodepleted from the NHP by immunoaffinity chromatography of NHP over an anti-protein S antibody column to form PSDP. The anti-protein S antibody column was prepared by coupling 100 mg of a monoclonal, high-affinity, calcium-independent anti-PS antibody, designated S7, to 30 ml of CNBr-activated Sepharose 4B (Pharmacia) as described in Example 2c1). Residual total protein S content in the resultant PSDP was less than 0.1% protein S as determined by quantitative immunoblotting, by solid-phase ELISA for total protein S and by electroimmunoassay.\nFor the APTT assay, APC was prepared as described in Example 2c2). The specific anticoagulant activity of APC was determined to be 250 Units/mg. The concentration of the APC used in the assay was initially optimized with respect to the sensitivity of the assay towards APC-induced prolongation of clotting time compared to clotting time without APC.\nOnce the optimal concentration of APC was determined, peptides from Table 2 were then separately admixed for a final concentration of 500 μM with 10 nM APC in 100 μl of TBS-BSA at pH 7.4 to form peptide-APC admixtures. The resulting admixtures were maintained for seven minutes at 37° C. Separate aliquots of peptides maintained under the same conditions in the absence of APC served as controls for the inhibitory effect of synthetic peptides on APC anticoagulant activity. After the maintenance period, 100 μl of NHP and 100 μl APTT-reagent Thrombosil (Ortho Diagnostics, Raritan, N.J.) were admixed into each peptide admixture and maintained for 200 seconds at 37° C. to form a pre-coagulation admixture. In some experiments, PSDP was used in the place of NHP to determine the effect of Protein S on the assay system. Coagulation was then initiated by the admixture of 100 μl of 30 mM CaCl2 in TBS prewarmed to 37° C. to each of the pre-coagulation admixtures. The time for clot formation was measured by an Electra 700 Automatic Coagulation Timer (Medical Laboratory Automation, Inc., Mount Vernon, N.Y.). Each peptide's effect was determined in duplicate.\nAdditional assays were performed to compare the specificity of the inhibitory effect of peptide-(390-404) on APC anticoagulant activity. Both APTT and Xa-1-stage assays were performed with peptide-(390-404) and with the same peptide synthesized in the reverse order, peptide-(404-390), at concentrations of the peptides ranging from 0 μM to 40 μM. In APTT assays performed as described above in the presence of NHP, APC was used at a concentration of 2.5 nM. For APTT assays in the presence of PSDP, APC was used at a concentration of 5 nM. […]\nOnce the optimal concentration of APC was determined, anti-(390-404) was separately admixed ranging in concentration from 0.0 to 240 nM with APC in 200 μl of TBS-BSA and 30 mM CaCl2 at pH 7.4 to form an anti-(390-404)-APC immunoreaction admixture pre-maintenance solution. […]", "note": "No end group written: not given here."}
{"substance": "KRNRTFVLNFIKIPV-NH2 [peptide-(311-325), KRNRTFVLNFIKIPV]", "values": [{"measurement": "IC50", "value": 20, "unit": "µM"}, {"measurement": "IC90", "value": 50, "unit": "µM"}]}
